#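 Compound exposure: 48 hours, 5 concentrations, 96-well plates. The concentration for full growth arrest is given as TGI.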
# How the values were obtained:
# Assay in all cases: NCI anticancer screen, dose series, 48 h
# [1] = test system: MOLT-4 leukemia
# [2] = test system: HOP-92 NSCLC
# [3] = test system: A549 NSCLC
# [4] = test system: NCI-H522 lung
# [5] = test system: SK-MEL-2 melanoma
# [6] = test system: BT-549 breast
# [7] = test system: UACC-257 melanoma
# [8] = test system: SW-620 colon
# [9] = test system: HCT-116 colon
# [10] = test system: CAKI-1 renal
# [11] = test system: LOX IMVI melanoma
# [12] = test system: SK-OV-3 ovarian
# [13] = test system: OVCAR-3 ovarian
# [14] = test system: MDA-MB-435
# [15] = test system: UACC-62 melanoma
# [16] = test system: HS 578T breast
# [17] = test system: RXF 393 renal
# [18] = test system: MDA-MB-231 breast
# [19] = test system: MCF7 breast
# [20] = test system: SF-295 CNS
# [21] = test system: EKVX NSCLC
# [22] = test system: DU-145 prostate
# [23] = test system: SF-539 CNS
# [24] = test system: T-47D breast
# [25] = test system: K-562 leukemia
# [26] = test system: IGROV1 ovarian
# [27] = test system: NCI-H460 lung
# [28] = test system: HOP-62 NSCLC
# [29] = test system: SN12C renal
# [30] = test system: 786-0 renal
# [31] = test system: MDA-N
# [32] = test system: NCI-H226 lung
# [33] = test system: SNB-19 CNS
# [34] = test system: HCC-2998 colon
# [35] = test system: UO-31 renal
# [36] = test system: U251 CNS
# [37] = test system: SK-MEL-28 melanoma
# [38] = test system: SF-268 CNS
# [39] = test system: COLO 205 colon
# [40] = test system: HCT-15 colon
# [41] = test system: CCRF-CEM leukemia
# [42] = test system: NCI/ADR-RES ovarian
# [43] = test system: HT29 colon
# [44] = test system: OVCAR-5 ovarian
# [45] = test system: OVCAR-8 ovarian
# [46] = test system: PC-3 prostate
# [47] = test system: RPMI-8226 leukemia
# [48] = test system: NCI-H23 lung
# [49] = test system: A498 renal
# [50] = test system: OVCAR-4 ovarian
# [51] = test system: SR leukemia
# [52] = test system: ACHN renal
# [53] = test system: KM12 colon
# [54] = test system: MALME-3M melanoma
# [55] = test system: M14 melanoma
# [56] = test system: HL-60(TB) leukemia
# [57] = test system: SK-MEL-5 melanoma
# [58] = test system: TK-10 renal
# [59] = test system: SNB-75 CNS
smiles,measurement,setting,value
CS(=O)(=O)N1CC(CCl)c2ccc([N+](=O)[O-])cc21 (configuration not stated),TGI,[1],> 100 µM
same,TGI,[2],> 100 µM
same,TGI,[3],> 100 µM
same,TGI,[4],> 100 µM
same,TGI,[5],> 100 µM
same,TGI,[6],> 100 µM
same,TGI,[7],> 100 µM
same,TGI,[8],> 100 µM
same,TGI,[9],> 100 µM
same,TGI,[10],> 100 µM
same,TGI,[11],> 100 µM
same,TGI,[12],> 100 µM
same,TGI,[13],> 100 µM
same,TGI,[14],> 100 µM
same,TGI,[15],> 100 µM
same,TGI,[16],> 100 µM
same,TGI,[17],> 100 µM
same,TGI,[18],> 100 µM
same,TGI,[19],> 100 µM
same,TGI,[20],> 100 µM
same,TGI,[21],> 100 µM
same,TGI,[22],> 100 µM
same,TGI,[23],> 100 µM
same,TGI,[24],> 100 µM
same,TGI,[25],> 100 µM
same,TGI,[26],> 100 µM
same,TGI,[27],> 100 µM
same,TGI,[28],> 100 µM
same,TGI,[29],> 100 µM
same,TGI,[30],> 100 µM
same,TGI,[31],> 100 µM
same,TGI,[32],> 100 µM
same,TGI,[33],> 100 µM
same,TGI,[34],> 100 µM
same,TGI,[35],> 100 µM
same,TGI,[36],> 100 µM
same,TGI,[37],> 100 µM
same,TGI,[38],> 100 µM
same,TGI,[39],> 100 µM
same,TGI,[40],> 100 µM
same,TGI,[41],> 100 µM
same,TGI,[42],> 100 µM
same,TGI,[43],> 100 µM
same,TGI,[44],> 100 µM
same,TGI,[45],> 100 µM
same,TGI,[46],> 100 µM
same,TGI,[47],> 100 µM
same,TGI,[48],> 100 µM
same,TGI,[49],> 100 µM
same,TGI,[50],> 100 µM
same,TGI,[51],> 100 µM
same,TGI,[52],> 100 µM
same,TGI,[53],> 100 µM
same,TGI,[54],> 100 µM
same,TGI,[55],> 100 µM
same,TGI,[56],> 100 µM
same,TGI,[57],> 100 µM
same,TGI,[58],> 100 µM
C=CCOc1ccc(/C(N=Nc2ccc(Cl)cc2)=N/NC(=O)c2ccccc2)cc1OC,TGI,[1],> 100 µM
same,TGI,[2],91.6 µM
same,TGI,[3],> 100 µM
same,TGI,[4],> 100 µM
same,TGI,[5],> 100 µM
same,TGI,[6],70.3 µM
same,TGI,[7],> 100 µM
same,TGI,[8],> 100 µM
same,TGI,[9],> 100 µM
same,TGI,[10],> 100 µM
same,TGI,[11],> 100 µM
same,TGI,[13],> 100 µM
same,TGI,[14],> 100 µM
same,TGI,[15],> 100 µM
same,TGI,[16],> 100 µM
same,TGI,[18],> 100 µM
same,TGI,[19],> 100 µM
same,TGI,[20],> 100 µM
same,TGI,[21],> 100 µM
same,TGI,[22],> 100 µM
same,TGI,[24],61.6 µM
same,TGI,[26],> 100 µM
same,TGI,[27],> 100 µM
same,TGI,[28],> 100 µM
same,TGI,[29],> 100 µM
same,TGI,[30],> 100 µM
same,TGI,[31],> 100 µM
same,TGI,[59],> 100 µM
same,TGI,[32],> 100 µM
same,TGI,[33],> 100 µM
same,TGI,[34],> 100 µM
same,TGI,[35],> 100 µM
same,TGI,[36],> 100 µM
same,TGI,[37],> 100 µM
same,TGI,[38],> 100 µM
same,TGI,[39],> 100 µM
same,TGI,[40],> 100 µM
same,TGI,[41],86.9 µM
same,TGI,[42],> 100 µM
same,TGI,[43],> 100 µM
same,TGI,[44],> 100 µM
same,TGI,[45],> 100 µM
same,TGI,[46],> 100 µM
same,TGI,[48],> 100 µM
same,TGI,[49],> 100 µM
same,TGI,[50],> 100 µM
same,TGI,[51],> 100 µM
same,TGI,[52],> 100 µM
same,TGI,[53],> 100 µM
same,TGI,[54],> 100 µM
same,TGI,[55],> 100 µM
same,TGI,[56],> 100 µM
same,TGI,[57],> 100 µM
same,TGI,[58],> 100 µM

# Source: PubChem BioAssay (NCI)
